# Results taken from patent US7485324B2, “Use of exogenous gaseous nitric oxide in the treatment and disinfection of biofilms” (Pulmonox Technologies Corporation, priority 2003, dated 2009).
# Key:
# [1] = tested on: B. cenocepacia C8963; assay: Biofilm formation in 96-well microtiter dish assay (crystal violet staining, A595); type: cell-based, Burkholderia cenocepacia; conditions: for C8963 biofilm growth in the presence of gNO compared with absence of gNO: 200 ppm gNO; for Average A595 (C8 + NO), biofilm formation: experiment 2
# Procedure: (§1) Objective: To determine if exposure to gaseous nitric oxide (gNO) affects the ability of B. cenocepacia C8963 to form a biofilm in a 96-well microtiter dish assay.
# (§2) Methods: B. cenocepacia C8963, a non-mucoid isolate from a cystic fibrosis (CF) patient, and C9343, a mucoid isolate from the same patient, were spotted on Luria Broth agar and grown at 37° C. overnight. Luria broth containing 0.5% (w/v) casamino acids was dispensed into 96-well polypropylene microtiter dishes (100 μl per well) and the wells inoculated with the C8963 or C9343 using a pin-inoculation device. Blank wells were not inoculated. Dishes were incubated in a humidified, closed plastic container for 24 hours at 37° C. (experiment 1) or in the outer chamber of the matrix incubator (a humidified incubator with controlled air flow) for 27 hours at 37° C. (experiment 2). At 24 hours (experiment 1) or 27 hours (experiment 2), one dish was processed for staining of the bacterial biofilms. The remaining dishes were incubated in the inner treatment arms of the matrix incubator at 37° C. in the presence or absence of 200 ppm gNO. One dish for each of the conditions (+gNO or −gNO) was processed for biofilm staining at 32, 36, and 48 hours.
# (§3) To stain biofilm growth, planktonic bacteria were removed from the microtitre dishes by discarding media and cells. Biofilms were washed to remove remaining non-adherent bacteria in two successive tap water washes. Water was shaken from the wells and the dishes inverted and tapped vigorously on a stack of paper towels to remove as much water as possible. Adherent growth was stained by adding 125 μlof a 0.1% (w/v) solution of crystal violet to each well and incubating at room temperature for 15 minutes. Crystal violet was discarded as for the previous washes and excess stain was removed in three successive tap-water washes. Excess water was removed by vigorous tapping as before and the stained dishes allowed to air dry.
# (§4) To quantitate biofilm formation, 200 μl of 95% ethanol was added to each well, incubated at room temperature for 15 minutes, and 125 μl from each well was removed to a clean flat-bottomed polystyrene microtitre dish. The absorbance at 595 nm was read on a Bio-Rad Model 3550 Microplate Reader. The average reading from “Blank” (uninoculated) wells containing only media was subtracted from each “Test” well. The [Test-Blank] averages and standard errors of the mean (SEM) were calculated for each condition and time.
# [2] = tested on: B. cenocepacia C9343; assay: as above; type: cell-based, Burkholderia cenocepacia; conditions: 200 ppm gNO; experiment 1
# Procedure: as §1, §2, §3, §4
compound,measurement,setting,value
"[N]=O [gNO, nitric oxide]",Effect on biofilm formation of C8963,[1]; 200 ppm final concentration of gNO,inhibited biofilm formation
same,C8963 biofilm growth in the presence of gNO compared with absence of gNO,"[1]; at 32 hours, experiments 1 and 2",greater than in the absence of gNO
same,C8963 biofilm growth in the presence of gNO compared with absence of gNO,"[1]; by 36 hours, experiments 1 and 2",significantly lower than in the absence of gNO
same,C8963 biofilm growth in the presence of gNO compared with absence of gNO,"[1]; remaining time points up to 48 hours, both experiments",consistently lower
same,"Average A595 (C8 + NO), biofilm formation","[1]; time 27 h, after 27 hours in air, before exposure to 200 ppm gNO",0.076
same,"Average A595 (C8 + NO), biofilm formation","[1]; time 32 h, 200 ppm gNO from 27 h, 37° C.",0.282
same,"Average A595 (C8 + NO), biofilm formation","[1]; time 36 h, 200 ppm gNO from 27 h, 37° C.",0.252
same,"Average A595 (C8 + NO), biofilm formation","[1]; time 48 h, 200 ppm gNO from 27 h, 37° C.",0.334
same,Effect on biofilm growth of C8963,[1]; low initial concentrations of gNO,enhanced biofilm growth
same,Induction of biofilm formation by mucoid C9343,[2],did not induce biofilm formation
